This is an account of results in patent publication EP3428169A1, “6,6A-DIHYDRO FURO[3,2-B]FURAN-2-(5H)ONE DERIVATIVES, THEIR PREPARATION AND USE FOR TREATING TUMORS” (Universita' Della Calabria, priority 2017, dated 2019).

Data set [1] concerns MCF-7 cells. In words: Cell viability assay: MTT test. Type of data set: cell-based, human. The following applies: for minimal effective concentration: Homo sapiens, MCF7, 72 h treatment, tested at 1, 5, 10, 20, 40 µM, p<0.05 vs untreated, read-out: concentration(s) giving significant reduction in the viability of MCF-7 cells.
Data set [2] concerns MDA-MB-231 cells. Nature of the data set: Cell viability assay: MTT test. The following applies: for minimal effective concentration: Homo sapiens, MDA-MB-231, 72 h treatment, tested at 1, 5, 10, 20, 40 µM, p<0.05 vs untreated, read-out: concentration(s) giving significant reduction in the viability of MDA-MB-231 cells. It is filed as cell-based.
Data set [3] concerns MDA-MB-468 cells. In words: Cell viability assay: MTT test. It is filed as cell-based. The following applies: for minimal effective concentration: Homo sapiens, MDA-MB-468, 72 h treatment, tested at 1, 5, 10, 20, 40 µM, p<0.05 vs untreated, read-out: concentration(s) giving significant reduction in the viability of MDA-MB-468 cells.
The subject of data set [4] is MCF-10A cells. In words: Cell viability assay: MTT test, non-tumour cells. The following applies: 72 h treatment; for reduction in cell viability of MCF-10A cells (in words): 1-40 µM; for concentration(s) giving inhibitory effect on viability of MCF-10A cells: tested at 1, 5, 10, 20, 40 µM. Type of data set: cell-based, human. The procedure:
(§1) All cell lines were obtained from the American Type Culture Collection (ATCC, Manassas, VA, USA). The human mammary adenocarcinoma cells (MCF-7) were cultured in DMEM-F12 (Dulbecco's Modified Eagle's Medium (DME) and Ham's F-12 Nutrient Mixture) containing 5% newborn calf serum (NCS), 1% glutamine, 1% penicillin/streptomycin (Sigma-Aldrich, Milan, Italy). The TNBC cells (MDA-MB-231 and MDA-MB-468) were cultured in DMEM-F12 containing 10% heat-inactivated foetal bovine serum (FBS), 1% glutamine, 1% penicillin/streptomycin (Sigma-Aldrich, Milan, Italy). The 3T3L- cells 1 (immortalised mouse fibroblasts) were cultured in DMEM (Dulbecco's Modified Eagle's medium) containing 10% heat-inactivated foetal bovine serum (FBS) and 1% penicillin/streptomycin (Sigma-Aldrich, Milan, Italy). The human mammary epithelial cells MCF-10A were maintained in DMEM-F12 with 5% horse serum (HS), 1% glutamine, 1% penicillin/streptomycin, 5 µg/ml of insulin, 0.25 mg/ml of hydrocortisone, 20 ng/ml of hEGF (human epidermal growth factor) and 0.05 mg/ml of cholera enterotoxin (Sigma-Aldrich, Milan, Italy).
(§2) All cell lines were maintained at 37°C in a 5% CO2 humidified atmosphere and periodically screened for mycoplasma contamination.
(§3) Cell viability was evaluated using a colorimetric assay which exploits the conversion, by the mitochondrial enzyme succinate dehydrogenase (SDH), of the bromide reagent of 3-(4,5-dimethylthiazol-2-il)-2,5-diphenyltetrazole (MTT) (Sigma-Aldrich, Milan, Italy) into crystals of a product called formazan (blue-coloured).
(§4) The cells were seeded in 48-well plates (25,000 cells/well), cultured for 72h in a complete medium before being treated for 72h with different doses (1, 5, 10, 20, 40 µM) of compounds A1, A2, A3, A4 and A5. At the end of the treatment the cells were incubated in darkness for 3h with 50 µl of a solution of MTT in PBS (2 mg/ml). The MTT solution was then carefully removed and the formazan salts that had formed were solubilised by adding 200 µl of DMSO (dimethyl sulphoxide) (Sigma-Aldrich, Milan, Italy), which imparts a pinkish colour to the solution. The coloured product was detected with the spectrophotometric method, by reading absorbance at the wavelength of 570 nm.
(§5) Cell viability was evaluated with the MTT colorimetric assay as described above.

The subject of data set [5] is 3T3-L1 cells. In words: Cell viability assay: MTT test, non-tumour cells. Type of data set: cell-based, mouse. The following applies: 72 h treatment; for reduction in cell viability of 3T3-L1 cells (in words): 1-40 µM; for concentration(s) giving inhibitory effect on viability of 3T3-L1 cells: tested at 1, 5, 10, 20, 40 µM. The procedure: as §1, §2, §3, §4, §5
Data set [6] concerns parp-1 protein. In words: Western blot analysis of cleavage/inactivation of parp-1. Type of data set: cell-based, human. The following applies: 20 µM, 48h. The procedure: The MCF-7, MDA-MB-231 and MDA-MB-468 cells were cultured in a complete medium for 72h in 60 mm plates (1 x 10^6 cells) before being treated for 48h with compound A4 (20 µM). After the treatment the cells were lysed in ice with RIPA (Radio-Immune Precipitation Assay) buffer (50 mM Tris HCI, pH 8.0, 150 mM NaCl, 1% NP-40, 0.5% sodium deoxycholate, 0.1% SDS, sodium dodecyl sulphate), containing protease inhibitors (1 mM phenylmethylsulphonyl fluoride (PMSF), 1mM sodium orthovanadate, 20 µM aprotinin, 20 µM leupeptin) for protein extraction. The lysates were maintained under ice for 10 minutes, then centrifuged for 10 minutes at 13000 rpm at 4°C. The protein content present in the supernatant was determined spectrophotometrically using the Bradford method. The proteins were separated, based on their molecular weight, in a sodium dodecyl sulphate-polyacrylamide gel (12%) (SDS-PAGE) and then transferred onto a nitrocellulose membrane. […]
In order to be able to visualise the interaction between the primary antibody and the protein of interest, the membranes were incubated for 1 hour at room temperature, after washing with TBS-T 1X three times in order to remove any traces of the primary antibody, with a specific secondary antibody conjugated to the enzyme horseradish peroxidase (HRP) and directed against the constant portion of the primary antibody. […] In order to normalise the result, the various membranes were hot stripped for 30 minutes at 50°C with a stripping buffer (62.5 mM Tris-HCI pH 6.7, 2% SDS, 100mM β-mercaptoethanoi) and re-incubated overnight with the antibody anti-glyceraldehyde 3-phosphate dehydrogenase (GAPDH) (1: 1000) (Santa Cruz Biotechnology, Santa Cruz, CA, USA) used as a control for the quantities of proteins loaded.

The subject of data set [7] is bcl-2 protein. In words: Western blot analysis of expression of anti-apoptotic bcl-2. Type of data set: cell-based, human. The following applies: 20 µM, 48h. The procedure: (§6) A further confirmation of the ability of the compound of formula A4 to induce the death, by apoptosis, of MCF-7, MDA-MB231 and MDA-MB468 tumour cells was given by the evaluation, through western blot analysis, of its effect on the expression of the anti-apoptotic bcl-2 protein and on the appearance of cytochrome c in the cytosolic compartment.
(§7) The cells were cultured in a complete medium for 72 h in 60 mm plates (1 x 10^6 cells) before being treated for 48h with compound A4 (20 µM) in order to evaluate the protein expression of bcl-2 and the expression of the cytochrome c present in the cytosolic protein fraction.
For an analysis of the protein expression of bcl-2, after treatment the cells were lysed in ice with RIPA (Radio-Immune Precipitation Assay) buffer (50 mM Tris HCI, pH 8.0, 150 mM NaCl, 1% NP-40, 0.5% sodium deoxycholate, 0.1% SDS, sodium dodecyl sulphate), containing protease inhibitors (1 mM phenylmethylsulphonyl fluoride (PMSF), 1mM sodium orthovanadate, 20 µM aprotinin, 20 µM leupeptin) for protein extraction. The lysates were maintained under ice for 10 minutes, then centrifuged for 10 minutes at 13000 rpm at 4°C. The protein content present in the supernatant was determined spectrophotometrically using the Bradford method. The proteins were separated, based on their molecular weight, in a sodium dodecyl sulphate-polyacrylamide gel (12%) (SDS-PAGE) and then subjected to a western blot analysis as described above, using a specific primary anti-bcl-2 antibody (1:500) (Santa Cruz Biotechnology, Santa Cruz, CA, USA).

Data set [8] has as its system cytochrome c. Nature of the data set: Western blot analysis of cytochrome c in the cytosolic protein fraction. Type of data set: cell-based, human. The following applies: 20 µM, 48h. The procedure:
as §6, §7
For the purpose of analysing the protein expression of the cytochrome c present in the cytosolic fraction, after treatment the cells were collected by centrifugation at 2500 rpm for 10 minutes at 4°C. The pellets were resuspended in 50 µl of sucrose buffer (250 mM sucrose, 10 mM Hepes, 10 mM KCl, 1.5 mM MgCl2, 1 mM EDTA, 1 mM EGTA) (Sigma-Aldrich, Milan, Italy) containing 20µM of aprotinin, 20 µM of leupeptin, 1mM of PMSF and 0.05% of digitonin (Sigma-Aldrich, Milan, Italy).
The cells were incubated for 20 minutes at 4°C and then centrifuged at 13000 rpm for 15 minutes at 4°C. The protein content present in the supernatant was determined spectrophotometrically using the Bradford method. The proteins were separated, based on their molecular weight, in a sodium dodecyl sulphate-polyacrylamide gel (15%) (SDS-PAGE) and then subjected to a western blot analysis as described above, using a specific primary anti-cytochrome c antibody (1:1000) (Santa Cruz Biotechnology, Santa Cruz, CA, USA).

As to `CC1(C)CC2(C)OC(=O)C([Si](C)(C)C)=C2O1` (stereo not shown) [Compound A2, 5,5,6a-trimethyl-3-(trimethylsilyl)-6,6a-dihydrofuro[3,2-b]furan-2(5H)-one], the minimal effective concentration in data set [1] is not below 1 µM. Besides, the minimal effective concentration in data set [2] is not below 1 µM. The minimal effective concentration in data set [3] is not below 1 µM. In addition, in data set [4], the “reduction in cell viability of MCF-10A cells (in words)” value was “modest” and the “concentration(s) giving inhibitory effect on viability of MCF-10A cells” value is reported as not below 5 µM. In addition, in data set [5], the “reduction in cell viability of 3T3-L1 cells (in words)” value is “modest” and the “concentration(s) giving inhibitory effect on viability of 3T3-L1 cells” value is given as not below 20 µM.

For the compound `CC1(C)CC2(C)OC(=O)C(c3ccccc3)=C2O1` (stereo not shown) [Compound A1, 5,5,6a-trimethyl-3-phenyl-6,6a-dihydrofuro[3,2-b]furan-2(5H)-one], the minimal effective concentration is not below 10 µM in data set [1], not below 10 µM in data set [2] and not below 5 µM in data set [3]. The “reduction in cell viability of MCF-10A cells (in words)” value in data set [4] was “more substantial”. The “concentration(s) giving inhibitory effect on viability of MCF-10A cells” value in data set [4] was not below 20 µM. In addition, the “reduction in cell viability of 3T3-L1 cells (in words)” value in data set [5] is given as “more substantial”. Moreover, the “concentration(s) giving inhibitory effect on viability of 3T3-L1 cells” value in data set [5] amounted to 40 µM.

On to `CC12CCOC1=C([Si](C)(C)C)C(=O)O2` (stereo not shown) [Compound A3, 6a-methyl-3-(trimethylsilyl)-6,6a-dihydrofuro[3,2-b]furan-2(5H)-one], for which the minimal effective concentration in data set [1] is not below 10 µM. Also, the minimal effective concentration in data set [2] is not below 5 µM. For the same compound, in data set [3], the minimal effective concentration was not below 5 µM. Moreover, in data set [4], the “reduction in cell viability of MCF-10A cells (in words)” value is “more substantial” and the “concentration(s) giving inhibitory effect on viability of MCF-10A cells” value is given as not below 10 µM. For the same compound, in data set [5], the “reduction in cell viability of 3T3-L1 cells (in words)” value was “more substantial” and the “concentration(s) giving inhibitory effect on viability of 3T3-L1 cells” value turned out to be 40 µM.

Consider `CC1(C)CC2(c3ccccc3)OC(=O)C([Si](C)(C)C)=C2O1` (stereo not shown) [Compound A4, 5,5-dimethyl-6a-phenyl-3-(trimethylsilyl)-6,6a-dihydrofuro[3,2-b]furan-2(5H)-one], for which the minimal effective concentration in data set [1] lay within 1 to 40 µM; in data set [2] it was 10 to 40 µM; in data set [3], 10 to 40 µM. Besides, the “reduction in cell viability of MCF-10A cells (in words)” value in data set [4] is “not influenced”. In addition, in data set [5], the “reduction in cell viability of 3T3-L1 cells (in words)” value was “not influenced”. The “cleavage of the parp-1 protein” value in data set [6] (MCF-7 cells), in data set [6] (MDA-MB-231 cells) and in data set [6] (MDA-MB-468 cells) was “the cleaved form of the parp-1 protein may be seen” in each case. Besides, the “expression of bcl-2” value in data set [7] (MCF-7 cells), in data set [7] (MDA-MB-231 cells) and in data set [7] (MDA-MB-468 cells) was “decreasing the expression of bcl-2” in each case. For the same compound, the “level of cytochrome c in the cytosolic fraction” value in data set [8] (MCF-7 cells), in data set [8] (MDA-MB-231 cells) and in data set [8] (MDA-MB-468 cells) was “increased to a significant degree” each time.

Regarding `CC1(C)CC2(c3ccccc3)OC(=O)C=C2O1` (stereo not shown) [Compound A5, 5,5-dimethyl-6a-phenyl-6,6a-dihydrofuro[3,2-b]furan-2(5H)-one], the “effect on the viability of MCF-7 cells (in words)” value in data set [1] (72 h treatment, 1-40 µM) is listed as “modest but significant effect”. For the same compound, the values for the minimal effective concentration in data set [1], in data set [2] and in data set [3] were 5 to 40 µM, 20 to 40 µM and 10 to 40 µM, respectively. The “effect on the viability of MDA-MB-231 cells (in words)” value in data set [2] (72 h treatment, 1-40 µM) is recorded as “modest but significant effect”. Moreover, in data set [3] (72 h treatment, 1-40 µM), the “effect on the viability of MDA-MB-468 cells (in words)” value is recorded as “slightly more effective”. In addition, in data set [4], the “reduction in cell viability of MCF-10A cells (in words)” value is given as “not influenced”. Also, the “reduction in cell viability of 3T3-L1 cells (in words)” value in data set [5] is “not influenced”.
